In PubChem BioAssay AID248 (DTP/NCI, 2004):
“And” between values parts separate entries of the source, which are not always exact repeats. Equal entries are not always repeated. Inconclusive results and toxic doses are left out. Cut-off read from the data, not from the text of the source: active = T/C of 150% or more; inactive = T/C below 125%.

System: L1210 leukemia ip in BDF1 mice, survival T/C
Experiment: NCI In Vivo Anticancer Drug Screen. Data for tumor model L1210 Leukemia (intraperitoneal) in B6D2F1 (BDF1) mice
Conditions: endpoint: mean survival time, higher = longer survival
In short: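 Survival endpoint. Drug-treated group vs vehicle group, expressed as T divided by C. Tumor passaged by transplantation.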

[1] = dose: 50.0 mg/kg/injection, schedule: Q01DX009 (ip), vehicle: Klucel (hydroxypropylcellulose) (HPC)
[2] = dose: 100.0 mg/kg/injection, schedule: Q01DX009 (ip), vehicle: Klucel (hydroxypropylcellulose) (HPC)
[3] = dose: 100.0 mg/kg/injection, schedule: Q04DX003 (ip), vehicle: Klucel (hydroxypropylcellulose) (HPC)
[4] = dose: 100.0 mg/kg/injection, schedule: Q04DX003 (ip), vehicle: saline
[5] = dose: 200.0 mg/kg/injection, schedule: Q01DX009 (ip), vehicle: Klucel (hydroxypropylcellulose) (HPC)
[6] = dose: 200.0 mg/kg/injection, schedule: Q04DX003 (ip), vehicle: Klucel (hydroxypropylcellulose) (HPC)
[7] = dose: 200.0 mg/kg/injection, schedule: Q04DX003 (ip), vehicle: saline
[8] = dose: 100.0 mg/kg/injection, schedule: Q01DX009 (ip), vehicle: saline with Tween-80
[9] = dose: 100.0 mg/kg/injection, schedule: Q04DX003 (ip), vehicle: saline with Tween-80
[10] = dose: 200.0 mg/kg/injection, schedule: Q01DX009 (ip), vehicle: saline with Tween-80
[11] = dose: 200.0 mg/kg/injection, schedule: Q04DX003 (ip), vehicle: saline with Tween-80
[12] = dose: 400.0 mg/kg/injection, schedule: Q01DX009 (ip), vehicle: saline with Tween-80
[13] = dose: 400.0 mg/kg/injection, schedule: Q04DX003 (ip), vehicle: saline with Tween-80
[14] = dose: 100.0 mg/kg/injection, schedule: Q01DX009 (ip), vehicle: saline
[15] = dose: 200.0 mg/kg/injection, schedule: Q01DX009 (ip), vehicle: saline
[16] = dose: 400.0 mg/kg/injection, schedule: Q01DX009 (ip), vehicle: saline
[17] = dose: 400.0 mg/kg/injection, schedule: Q01DX009 (ip), vehicle: Klucel (hydroxypropylcellulose) (HPC)
[18] = dose: 400.0 mg/kg/injection, schedule: Q04DX003 (ip), vehicle: Klucel (hydroxypropylcellulose) (HPC)
[19] = dose: 100.0 mg/kg/injection, schedule: Q01DX001 (ip), vehicle: carboxymethylcellulose (CMC)
[20] = dose: 200.0 mg/kg/injection, schedule: Q01DX001 (ip), vehicle: carboxymethylcellulose (CMC)
[21] = dose: 400.0 mg/kg/injection, schedule: Q01DX001 (ip), vehicle: carboxymethylcellulose (CMC)

Measured: T/C

Cc1cc(=O)[nH][nH]c1=O
inactive: [1] 97 % of control | dose: 50.0 mg/kg/injection, schedule: Q04DX003 (ip), vehicle: Klucel (hydroxypropylcellulose) (HPC) 106 % of control | dose: 100.0 mg/kg/injection, schedule: Q01DX001 (ip), vehicle: saline with Tween-80 95 % of control | [2] 105 % of control | [3] 103 % of control | [4] 94 % of control | dose: 200.0 mg/kg/injection, schedule: Q01DX001 (ip), vehicle: saline with Tween-80 92 % of control | [5] 101 % of control | [6] 101 % of control | [7] 97 % of control | dose: 400.0 mg/kg/injection, schedule: Q01DX001 (ip), vehicle: saline with Tween-80 100 % of control | dose: 400.0 mg/kg/injection, schedule: Q04DX003 (ip), vehicle: saline 97 % of control

CC(C)C12OC1CC1C3(C)CCCC(C)(C(=O)O)C3CCC13OC32 (stereo not drawn)
inactive: [8] 98 % of control | [9] 90 % of control | [10] 96 % of control | [11] 90 % of control | [12] 93 % of control | [13] 90 % of control

OC(C[n+]1ccccc1)c1c[nH]c2ccccc12 (stereo not drawn)
inactive: dose: 75.0 mg/kg/injection, schedule: Q01DX001 (ip), vehicle: other 107 % of control

CN(C)/C=C1/C=Cc2ccccc21
inactive: [14] 98 % of control | [15] 101 % of control | [16] 97 % of control

CN(C)c1ccc(C=Nc2ccc(S(N)(=O)=O)cc2)cc1
inactive: [2] 100 % of control | [5] 93 % of control | [17] 98 % of control

CC(C)CC(=O)Nc1ccccc1
inactive: [3] 105 % of control | dose: 100.0 mg/kg/injection, schedule: Q04DX003 (ip), vehicle: other 98 % of control | [6] 101 % of control | dose: 200.0 mg/kg/injection, schedule: Q04DX003 (ip), vehicle: other 98 % of control | [18] 89 % of control | dose: 400.0 mg/kg/injection, schedule: Q04DX003 (ip), vehicle: other 89 % of control

CC1CN=C(Cc2ccc(NC(=O)c3ccc(C(=O)Nc4ccc(CC5=NCC(C)N5)cc4)cc3)cc2)N1 (stereo not drawn)
inactive: dose: 3.75 mg/kg/injection, schedule: Q01DX Z (ip), vehicle: water 91 % of control | dose: 7.5 mg/kg/injection, schedule: Q01DX Z (ip), vehicle: water 101 % of control

COc1ccc(CC2C(=O)OC(=O)C2Cc2ccc(OC)c(OC)c2)cc1OC (stereo not drawn)
inactive: [9] 91 % of control | [11] 104 % of control | [13] 94 % of control

BrCC1=CC(c2ccccc2)(c2ccccc2)c2ccccc21
inactive: [9] 89 % of control | [11] 89 % of control | [13] 87 % of control

Cc1c2c(cc3c1[nH]c1ccccc13)C(c1ccc(Cl)cc1)=NCC2
inactive: [8] 87 % of control | [10] 87 % of control | [12] 88 % of control

Nc1cc(S(=O)(=O)O)cc2ccccc12
inactive: dose: 100.0 mg/kg/injection, schedule: Q01DX001 (ip), vehicle: saline 92 % of control | dose: 200.0 mg/kg/injection, schedule: Q01DX001 (ip), vehicle: saline 92 % of control | dose: 400.0 mg/kg/injection, schedule: Q01DX001 (ip), vehicle: saline 87 % of control

Cc1cccc(SC(=O)Nc2ccccc2C(F)(F)F)c1
inactive: dose: 25.0 mg/kg/injection, schedule: Q01DX009 (ip), vehicle: Klucel (hydroxypropylcellulose) (HPC) 103 % of control | [1] 94 % of control | [2] 97 % of control and 102 % of control | [3] 98 % of control | [6] 109 % of control | [18] 93 % of control

Cc1ccccc1C(=O)c1ccccc1C(=O)c1ccccc1
inactive: dose: 50.0 mg/kg/injection, schedule: Q01DX001 (ip), vehicle: carboxymethylcellulose (CMC) 98 % of control | [19] 88 % of control | [14] 97 % of control | [20] 93 % of control | [15] 95 % of control | [21] 101 % of control | [16] 97 % of control

C=CCSCC(=O)c1ccccc1
inactive: [1] 90 % of control | [2] 94 % of control | [3] 101 % of control | [5] 90 % of control | [6] 97 % of control | [18] 100 % of control

CS(=O)(=O)OCCN(CCOS(C)(=O)=O)c1cccc([N+](=O)[O-])c1
inactive: dose: 1.0 mg/kg/injection, schedule: Q01DX001 (ip), vehicle: saline 101 % of control | dose: 2.0 mg/kg/injection, schedule: Q01DX001 (ip), vehicle: saline 101 % of control | dose: 4.0 mg/kg/injection, schedule: Q01DX001 (ip), vehicle: saline 101 % of control | dose: 8.0 mg/kg/injection, schedule: Q01DX001 (ip), vehicle: saline 102 % of control | dose: 152.0 mg/kg/injection, schedule: Q01DX001 (ip), vehicle: saline 113 % of control | dose: 228.0 mg/kg/injection, schedule: Q01DX015 (ip), vehicle: saline 118 % of control | dose: 342.0 mg/kg/injection, schedule: Q01DX001 (ip), vehicle: saline 95 % of control | dose: 342.0 mg/kg/injection, schedule: Q01DX015 (ip), vehicle: saline 92 % of control | dose: 1024.0 mg/kg/injection, schedule: Q01DX001 (ip), vehicle: saline 102 % of control

O=C(Nc1ccc(Cl)cc1)c1cc([N+](=O)[O-])ccc1O
inactive: dose: 30.5 mg/kg/injection, schedule: Q02DX010 (ip), vehicle: carboxymethylcellulose (CMC) 95 % of control | dose: 61.0 mg/kg/injection, schedule: Q02DX010 (ip), vehicle: carboxymethylcellulose (CMC) 101 % of control | dose: 122.0 mg/kg/injection, schedule: Q02DX010 (ip), vehicle: carboxymethylcellulose (CMC) 99 % of control | dose: 244.0 mg/kg/injection, schedule: Q02DX010 (ip), vehicle: carboxymethylcellulose (CMC) 94 % of control

O=C(NNS(=O)(=O)c1ccc([N+](=O)[O-])cc1)c1ccccc1
inactive: [19] 105 % of control | [20] 102 % of control | [21] 100 % of control

O=C(C#Cc1ccccc1)N1CCCCC1
inactive: dose: 200.0 mg/kg/injection, schedule: Q04DX002 (ip), vehicle: saline with Tween-80 98 % of control | dose: 400.0 mg/kg/injection, schedule: Q04DX002 (ip), vehicle: saline with Tween-80 101 % of control

Cc1cc(C)c(NC(=O)c2ccco2)cc1C
inactive: [2] 105 % of control | [5] 92 % of control | [17] 105 % of control

CCC(C(O)c1ccccc1)C(O)(C(F)(F)F)C(F)(F)F (stereo not drawn)
inactive: dose: 75.0 mg/kg/injection, schedule: Q01DX009 (ip), vehicle: saline with Tween-80 100 % of control | dose: 150.0 mg/kg/injection, schedule: Q01DX009 (ip), vehicle: saline with Tween-80 106 % of control | dose: 300.0 mg/kg/injection, schedule: Q01DX009 (ip), vehicle: saline with Tween-80 103 % of control

OCCN1CCN(c2ccccc2)CC1
inactive: dose: 50.0 mg/kg/injection, schedule: Q04DX003 (ip), vehicle: saline 104 % of control | [4] 113 % of control | [7] 102 % of control

COC1OC2COc3ccccc3OC2C2C1N2C(C)=O (stereo not drawn)
inactive: dose: 100.0 mg/kg/injection, schedule: Q04DX002 (ip), vehicle: Klucel (hydroxypropylcellulose) (HPC) 113 % of control | dose: 200.0 mg/kg/injection, schedule: Q04DX002 (ip), vehicle: Klucel (hydroxypropylcellulose) (HPC) 98 % of control

ClCc1ccc2ccc3cccc4ccc1c2c34
inactive: dose: 5.0 mg/kg/injection, schedule: Q01DX009 (ip), vehicle: carboxymethylcellulose (CMC) 109 % of control | dose: 10.0 mg/kg/injection, schedule: Q01DX009 (ip), vehicle: carboxymethylcellulose (CMC) 110 % of control | dose: 12.5 mg/kg/injection, schedule: Q01DX009 (ip), vehicle: carboxymethylcellulose (CMC) 109 % of control | dose: 20.0 mg/kg/injection, schedule: Q01DX009 (ip), vehicle: carboxymethylcellulose (CMC) 121 % of control | dose: 25.0 mg/kg/injection, schedule: Q01DX009 (ip), vehicle: carboxymethylcellulose (CMC) 97 % of control
